Reference: patent US20150258101A1 (Proximagen Limited, priority 2014, published 2015)
Counter-ions that a name gives are not always drawn.

Target: T1, purified recombinantly expressed human SSAO (Homo sapiens, UniProt Q16853)
T1 construct: made in house
T1 sequence (Q16853 1-763): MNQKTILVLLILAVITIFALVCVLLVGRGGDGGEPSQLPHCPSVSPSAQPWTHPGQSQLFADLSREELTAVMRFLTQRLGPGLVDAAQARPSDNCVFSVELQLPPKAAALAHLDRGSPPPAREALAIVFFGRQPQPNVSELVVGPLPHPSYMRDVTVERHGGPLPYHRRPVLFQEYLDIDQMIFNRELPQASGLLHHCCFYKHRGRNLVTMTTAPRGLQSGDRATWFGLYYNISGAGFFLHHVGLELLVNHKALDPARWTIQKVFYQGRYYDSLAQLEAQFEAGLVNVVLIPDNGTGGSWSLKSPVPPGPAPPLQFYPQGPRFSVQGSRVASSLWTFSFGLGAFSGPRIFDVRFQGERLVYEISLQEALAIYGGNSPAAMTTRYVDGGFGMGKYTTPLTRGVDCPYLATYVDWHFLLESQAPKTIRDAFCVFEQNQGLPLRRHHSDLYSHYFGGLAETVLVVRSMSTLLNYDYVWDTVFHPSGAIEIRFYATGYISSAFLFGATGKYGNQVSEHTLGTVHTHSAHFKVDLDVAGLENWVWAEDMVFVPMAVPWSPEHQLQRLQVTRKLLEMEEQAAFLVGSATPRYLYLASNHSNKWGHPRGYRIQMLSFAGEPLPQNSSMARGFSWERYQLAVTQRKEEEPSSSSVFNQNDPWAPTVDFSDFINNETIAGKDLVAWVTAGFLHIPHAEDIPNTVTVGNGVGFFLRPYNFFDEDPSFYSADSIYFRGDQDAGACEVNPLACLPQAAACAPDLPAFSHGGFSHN
Test: SSAO enzyme inhibition assay (benzylamine substrate; hydrogen peroxide/HRP-coupled or 14C aldehyde detection)
Type: biochemical
Settings: SSAO inhibitory activity, RT
Protocol: All primary assays were performed at RT. with purified recombinantly expressed human SSAO. Enzyme was prepared essentially as described in Öhman et al. (Protein Expression and Purification 46 (2006) 321-331). In addition, secondary- and selectivity assays were performed using SSAO prepared from various tissues or purified rat recombinant SSAO. The enzyme activity was assayed with benzylamine as substrate by measuring either benzaldehyde production, using ^14C-labeled substrate, or by utilizing the production of hydrogen peroxide in a horseradish peroxidase (HRP) coupled reaction. Briefly, test compounds were dissolved in dimethyl sulfoxide (DMSO) to a concentration of 10 mM. Dose-response measurements were assayed by either creating 1:10 serial dilutions in DMSO to produce a 7 point curve or by making 1:3 serial dilutions in DMSO to produce 11 point curves.
In a horseradish peroxidase (HRP) coupled reaction, hydrogen peroxide oxidation of 10-acetyl-3,7-dihydroxyphenoxazine produced resorufin, which is a highly fluorescent compound (Zhout and Panchuk-Voloshina. Analytical Biochemistry 253 (1997) 169-174; Amplex® Red Hydrogen Peroxide/peroxidase Assay kit, Invitrogen A22188). Enzyme and compounds in 50 mM sodium phosphate, pH 7.4 were set to pre-incubate in flat-bottomed microtiter plates for approximately 15 min before initiating the reaction by addition of a mixture of HRP, benzylamine and Amplex reagent. Benzylamine concentration was fixed at a concentration corresponding to the Michaelis constant, determined using standard procedures. Fluorescence intensity was then measured at several time points during 1-2 h, exciting at 544 nm and reading the emission at 590 nm. For the human SSAO assay final concentrations of the reagents in the assay wells were: SSAO enzyme 1 ug/ml, benzylamine 100 uM, Amplex reagent 20 uM, HRP 0.1 U/mL and varying concentrations of test compound. The inhibition was measured as % decrease of the signal compared to a control without inhibitor (only diluted DMSO). The background signal from a sample containing no SSAO enzyme was subtracted from all data points. Data was fitted to a four parameter logistic model and IC50 values were calculated using the Graph Pad Prism 4 or XLfit 4 programs.
SSAO activity was assayed using 14C-labeled benzylamine and analysed by measuring radioactive benzaldehyde. In a white 96-well optiplate (Packard), 20 uL of diluted test compound was pre-incubated at room temperature with 20 uL SSAO enzyme for approximately 15 min with continuous agitation. All dilutions were made with PBS. The reaction was initiated by adding 20 uL of the benzylamine substrate solution containing [7-14C] Benzylamine hydrochloride (CFA589, GE Healthcare). The plate was incubated for 1 h as above after which the reaction was stopped by acidification (10 uL 1M aq HCl). Then 90 uL Micro Scint-E solution (Perkin-Elmer) was added to each well and the plate was continuously mixed for 15 min. Phase separation occurred instantly and activity was read in a Topcount scintillation counter (Perkin-Elmer). In the final reaction well, the human recombinant SSAO concentration was 10 ug/ml. In order to optimize sensitivity, the substrate concentration was decreased as compared to the HRP coupled assay in order to get a higher fraction of radioactive product. In the human SSAO assay, benzylamine concentration was 40 uM (0.2 uCi/mL). Data was analysed as above.

Row | IC50 [nM] | Structure (SMILES)
1 | 50 to 200 | Fc1ccc(-n2c(-c3ccc(C4CCOCC4)nn3)nc3ccncc32)cc1 [Example 15, 3-[3-(4-Fluorophenyl)-3H-imidazo[4,5-c]pyridin-2-yl]-6-(oxan-4-yl)pyridazine]
2 | < 50 | Cn1ccc(-c2nc3ccncc3n2-c2ccc(Cl)cc2)cc1=O [Example 32, 4-[3-(4-Chlorophenyl)-3H-imidazo[4,5-c]pyridin-2-yl]-1-methyl-1,2-dihydropyridin-2-one]
3 | < 50 | NC(=O)N1CCN(c2ccc(-c3nc4ccncc4n3-c3ccc(Cl)cc3)cn2)CC1 [Example 90, 4-{5-[3-(4-Chlorophenyl)-3H-imidazo[4,5-c]pyridin-2-yl]pyridin-2-yl}piperazine-1-carboxamide dihydrochloride]
4 | 200 to 1200 | Cc1cc(NC2CCOCC2)ncc1-c1nc2ccncc2n1-c1ccc(F)cc1 [Example 100, 5-[3-(4-Fluorophenyl)-3H-imidazo[4,5-c]pyridin-2-yl]-4-methyl-N-(oxan-4-yl)pyridin-2-amine]
5 | < 50 | Oc1ccc(-n2c(-c3ccc(N4CCOCC4)nc3)nc3ccncc32)cc1 [Example 65, 4-{2-[6-(Morpholin-4-yl)pyridin-3-yl]-3H-imidazo[4,5-c]pyridin-3-yl}phenol]
6 | 50 to 200 | NC(=O)N1CCN(c2ncc(-c3nc4ccncc4n3-c3ccc(Cl)cc3)o2)CC1 [Example 93, 4-{5-[3-(4-Chlorophenyl)-3H-imidazo[4,5-c]pyridin-2-yl]-1,3-oxazol-2-yl}piperazine-1-carboxamide]
7 | 200 to 1200 | Cn1ccc(-c2nc3ccncc3n2-c2ccc(F)cc2)cc1=O [Example 114, 4-[3-(4-Fluorophenyl)-3H-imidazo[4,5-c]pyridin-2-yl]-1-methyl-1,2-dihydropyridin-2-one]
8 | 200 to 1200 | Fc1ccc(-n2c(-c3cnc(N4CCOCC4)nc3)nc3ccncc32)c(Cl)c1 [Example 56, 4-{5-[3-(2-Chloro-4-fluorophenyl)-3H-imidazo[4,5-c]pyridin-2-yl]pyrimidin-2-yl}morpholine]
9 | 50 to 200 | CN1CCN(c2ncc(-c3nc4ccncc4n3-c3ccc(F)cc3)cn2)CC1=O [Example 40, 4-{5-[3-(4-Fluorophenyl)-3H-imidazo[4,5-c]pyridin-2-yl]pyrimidin-2-yl}-1-methylpiperazin-2-one]
10 | < 50 | CN(C)c1ncc(-c2cc3ccncc3n2-c2ccc(Cl)cc2)cn1 [Example 137, 5-[1-(4-Chlorophenyl)-1H-pyrrolo[2,3-c]pyridin-2-yl]-N,N-dimethylpyrimidin-2-amine; bis(trifluoroacetic acid)]
11 | 200 to 1200 | Cc1nc(N2CCOCC2)ccc1-c1nc2ccncc2n1-c1ccc(F)cc1 [Example 108, 4-{5-[3-(4-Fluorophenyl)-3H-imidazo[4,5-c]pyridin-2-yl]-6-methylpyridin-2-yl}morpholine]
12 | 200 to 1200 | O=c1cc(-c2cc3ccncc3n2-c2ccccc2)ccn1C1CC1 [Example 155, 1-Cyclopropyl-4-{1-phenyl-1H-pyrrolo[2,3-c]pyridin-2-yl}-1,2-dihydropyridin-2-one]
13 | < 50 | Cc1ccc(-n2c(-c3cnc(N4C[C@@H](C)O[C@@H](C)C4)nc3)nc3ccncc32)cn1 [Example 118, (2R,6S)-2,6-Dimethyl-4-{5-[3-(6-methylpyridin-3-yl)-3H-imidazo[4,5-c]pyridin-2-yl]pyrimidin-2-yl}morpholine]
14 | < 50 | CN(C)c1ncc(-c2nc3ccncc3n2-c2ccc(Cl)cc2F)cn1 [Example 84, 5-[3-(4-Chloro-2-fluorophenyl)-3H-imidazo[4,5-c]pyridin-2-yl]-N,N-dimethylpyrimidin-2-amine]
15 | 200 to 1200 | Clc1ccc(-n2c(-c3csc(N4CCNCC4)n3)nc3ccncc32)cc1 [Example 17, 1-{4-[3-(4-Chlorophenyl)-3H-imidazo[4,5-c]pyridin-2-yl]-1,3-thiazol-2-yl}piperazine dihydrochloride]
16 | < 50 | Fc1ccccc1-n1c(-c2ccc(N3CCOCC3)nc2)nc2ccncc21 [Example 68, 4-{5-[3-(2-Fluorophenyl)-3H-imidazo[4,5-c]pyridin-2-yl]pyridin-2-yl}morpholine]
17 | 50 to 200 | Clc1ccc(-n2c(-c3ccc(-n4cccn4)nc3)cc3ccncc32)cc1 [Example 151, 5-[1-(4-Chlorophenyl)-1H-pyrrolo[2,3-c]pyridin-2-yl]-2-(1H-pyrazol-1-yl)pyridine; bis(trifluoroacetic acid)]
18 | 50 to 200 | Clc1ccc(-n2c(-c3cnc(NC4CCOCC4)cn3)nc3ccncc32)cc1 [Example 7, 5-[3-(4-Chlorophenyl)-3H-imidazo[4,5-c]pyridin-2-yl]-N-(oxan-4-yl)pyrazin-2-amine]
19 | 200 to 1200 | NC(=O)N1CCCN(c2ccc(-c3nc4ccncc4n3-c3ccc(F)cc3)cn2)CC1 [Example 94, 4-{5-[3-(4-Fluorophenyl)-3H-imidazo[4,5-c]pyridin-2-yl]pyridin-2-yl}-1,4-diazepane-1-carboxamide]
20 | 200 to 1200 | Clc1ccc(-n2c(-c3cccnc3)nc3ccncc32)cc1 [Example 1, 3-[3-(4-Chlorophenyl)-3H-imidazo[4,5-c]pyridin-2-yl]pyridine]
21 | 50 to 200 | Cc1ccc(-n2c(-c3cnc(N4CCOCC4)nc3)cc3ccncc32)cc1 [Example 130, 4-{5-[1-(4-Methylphenyl)-1H-pyrrolo[2,3-c]pyridin-2-yl]pyrimidin-2-yl}morpholine]
22 | < 50 | Clc1ccc(-n2c(-c3cnc(NCC4CC4)nc3)cc3ccncc32)cc1 [Example 149, 5-[1-(4-Chlorophenyl)-1H-pyrrolo[2,3-c]pyridin-2-yl]-N-(cyclopropylmethyl)pyrimidin-2-amine]
23 | 50 to 200 | Clc1ccc(-n2c(-c3cnc(N4CCNCC4)s3)nc3ccncc32)cc1 [Example 19, 1-{5-[3-(4-Chlorophenyl)-3H-imidazo[4,5-c]pyridin-2-yl]-1,3-thiazol-2-yl}piperazine]
24 | 50 to 200 | Cc1cc(NCC2CC2)ncc1-c1nc2ccncc2n1-c1ccc(F)cc1 [Example 101, N-(Cyclopropylmethyl)-5-[3-(4-fluorophenyl)-3H-imidazo[4,5-c]pyridin-2-yl]-4-methylpyridin-2-amine]
25 | < 50 | Cc1cc(N2CCOCC2)ncc1-c1cc2ccncc2n1-c1ccc(Cl)cc1 [Example 129, 4-{5-[1-(4-Chlorophenyl)-1H-pyrrolo[2,3-c]pyridin-2-yl]-4-methylpyridin-2-yl}morpholine; bis(trifluoroacetic acid)]
26 | 200 to 1200 | CN1CCN(Cc2cccc(-c3nc4ccncc4n3-c3ccc(Cl)cc3)c2)CC1 [Example 45, 1-({3-[3-(4-Chlorophenyl)-3H-imidazo[4,5-c]pyridin-2-yl]phenyl}methyl)-4-methylpiperazine; formic acid]
27 | < 50 | Cc1ccc(-n2c(-c3cnc(NCCOC(C)C)nc3)nc3ccncc32)cc1 [Example 39, 5-[3-(4-Methylphenyl)-3H-imidazo[4,5-c]pyridin-2-yl]-N-[2-(propan-2-yloxy)ethyl] pyrimidin-2-amine]
